{"source": "patent US20040161757A1", "about": "“Use of acetyl-coa carboxylase for identifying compounds that have an insecticidal effect” (priority 2000, published 2004)", "system": "peach aphid Myzus persicae", "assay": "Impairment of lipid neogenesis: 14C-acetate feeding by the sachet method, lipid extract separated by TLC", "assay_type": "in vivo", "source_text": "Peach aphid Myzus persicae larvae or adults were fed for two days with nutrient solutions with and without one of the identified ACCase inhibitors, using the sachet method (Nauen et al. 1996).\nThereafter, the animals were collected and homogenized in organic solvent using a pestle and mortar. The organic phase was cleansed of water-soluble constituents by repeatedly extracting it by shaking with aqueous solution, and the solvent was then evaporated. The pellet which remained was taken up in a little solvent and separated by thin-layer chromatography (TLC). The lipids which were separated were stained with amido black. ^14C-acetate which was incorporated into the lipids was detected by autoradiography after an exposure time of 2-3 days. To quantify the ^14C-incorporation into lipids, the bands in question were scraped out after staining, dissolved, and the activity was determined in a scintillation counter. […] Thus, no de novo lipid synthesis from acetate has taken place. […] It can be seen clearly that increasing inhibitor concentrations halt the de-novo lipid biosynthesis.\nThe mobile phase used for the TLC chromatography was n-hexane: diethyl ether: glacial acetic acid (60:45:1)."}
{"molecule": "COC1CCC2(CC1)NC(=O)C(c1c(C)cc(C)c(C)c1C)=C2O", "note": "(centres unmarked) [I-A, 4-hydroxy-8-methoxy-3-(2,3,4,6-tetramethylphenyl)-1-azaspiro[4,5]dec-32-en-2-one]", "values": [{"measurement": "radiolabeled 14C-acetate incorporated into lipids during de-novo synthesis (autoradiograph of TLC plate)", "setting": "fed for two days, exposure time 2-3 days, FIG. 1b, treated vs control aphids", "result": "no labeled lipids are present"}, {"measurement": "lipid composition and lipid content (lipid status after acetate feeding, TLC stained with amido black)", "setting": "larvae or adults fed for two days with nutrient solution with vs without active ingredient, FIG. 1a lanes 4-6 vs 1-3", "result": "No significant differences"}]}
